Experimental data from PubChem BioAssay AID248 (DTP/NCI, 2004).
Where “and” joins values, the source holds several entries; their conditions need not be identical. Identical values can stand only once. Inconclusive results and toxic doses are left out. No stated cut-off is given here; in the data, active means T/C of 150% or more; inactive means T/C below 125%.

System: L1210 leukemia ip in BDF1 mice, survival T/C
Experiment: NCI In Vivo Anticancer Drug Screen. Data for tumor model L1210 Leukemia (intraperitoneal) in B6D2F1 (BDF1) mice
Conditions: endpoint: mean survival time, higher = longer survival
Method in brief: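 Ratio derived from survival: compound-dosed mice over vehicle-dosed mice, all bearing a transplantable tumor.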

[1] = dose: 50.0 mg/kg/injection, schedule: Q01DX009 (ip), vehicle: saline with Tween-80
[2] = dose: 100.0 mg/kg/injection, schedule: Q01DX009 (ip), vehicle: saline with Tween-80
[3] = dose: 100.0 mg/kg/injection, schedule: Q04DX003 (ip), vehicle: Klucel (hydroxypropylcellulose) (HPC)
[4] = dose: 400.0 mg/kg/injection, schedule: Q04DX003 (ip), vehicle: Klucel (hydroxypropylcellulose) (HPC)
[5] = dose: 200.0 mg/kg/injection, schedule: Q04DX003 (ip), vehicle: Klucel (hydroxypropylcellulose) (HPC)
[6] = dose: 100.0 mg/kg/injection, schedule: Q04DX002 (ip), vehicle: Klucel (hydroxypropylcellulose) (HPC)
[7] = dose: 200.0 mg/kg/injection, schedule: Q04DX002 (ip), vehicle: Klucel (hydroxypropylcellulose) (HPC)
[8] = dose: 400.0 mg/kg/injection, schedule: Q04DX002 (ip), vehicle: Klucel (hydroxypropylcellulose) (HPC)
[9] = dose: 100.0 mg/kg/injection, schedule: Q04DX002 (ip), vehicle: saline with Tween-80
[10] = dose: 200.0 mg/kg/injection, schedule: Q04DX002 (ip), vehicle: saline with Tween-80
[11] = dose: 100.0 mg/kg/injection, schedule: Q04DX003 (ip), vehicle: saline with Tween-80
[12] = dose: 200.0 mg/kg/injection, schedule: Q04DX003 (ip), vehicle: saline with Tween-80
[13] = dose: 400.0 mg/kg/injection, schedule: Q04DX003 (ip), vehicle: saline with Tween-80

Measured: T/C

CC1(c2ccccc2)CCC(NN=C(N)N)=NC1 (stereo not drawn)
inactive: dose: 15.0 mg/kg/injection, schedule: Q01DX Z (ip), vehicle: methylcellulose (MC) 95 % of control | dose: 30.0 mg/kg/injection, schedule: Q01DX Z (oral), vehicle: methylcellulose (MC) 97 % of control | dose: 60.0 mg/kg/injection, schedule: Q01DX Z (ip), vehicle: methylcellulose (MC) 101 % of control | dose: 60.0 mg/kg/injection, schedule: Q01DX Z (oral), vehicle: methylcellulose (MC) 91 % of control | dose: 120.0 mg/kg/injection, schedule: Q01DX Z (ip), vehicle: methylcellulose (MC) 95 % of control | dose: 120.0 mg/kg/injection, schedule: Q01DX Z (oral), vehicle: methylcellulose (MC) 101 % of control | dose: 240.0 mg/kg/injection, schedule: Q01DX Z (ip), vehicle: methylcellulose (MC) 93 % of control | dose: 240.0 mg/kg/injection, schedule: Q01DX Z (oral), vehicle: methylcellulose (MC) 93 % of control | dose: 375.0 mg/kg/injection, schedule: Q01DX Z (oral), vehicle: methylcellulose (MC) 89 % of control | dose: 420.0 mg/kg/injection, schedule: Q01DX Z (ip), vehicle: methylcellulose (MC) 93 % of control | dose: 500.0 mg/kg/injection, schedule: Q01DX Z (oral), vehicle: methylcellulose (MC) 86 % of control | dose: 600.0 mg/kg/injection, schedule: Q01DX Z (ip), vehicle: methylcellulose (MC) 92 % of control | dose: 625.0 mg/kg/injection, schedule: Q01DX Z (oral), vehicle: methylcellulose (MC) 93 % of control

CC(C)c1cccc(OS(=O)(=O)c2ccccc2[N+](=O)[O-])c1
inactive: dose: 25.0 mg/kg/injection, schedule: Q01DX009 (ip), vehicle: saline with Tween-80 105 % of control | [1] 105 % of control | [2] 105 % of control | [3] 93 % of control | [4] 96 % of control

O=C(CC(=O)CC(O)(C(F)(F)F)C(F)(F)F)CC(O)(C(F)(F)F)C(F)(F)F
inactive: dose: 2.5 mg/kg/injection, schedule: Q01DX009 (ip), vehicle: saline 97 % of control | dose: 5.0 mg/kg/injection, schedule: Q01DX009 (ip), vehicle: saline 95 % of control

Cc1ccccc1NC(N)=O
inactive: [3] 110 % of control | [5] 105 % of control | [4] 103 % of control

O=C(O)c1cc(S(=O)(=O)O)cc([N+](=O)[O-])c1O
inactive: [6] 96 % of control | [7] 104 % of control | [8] 96 % of control

CC(=O)Nc1nc(SCc2ccccc2)c2c(no[n+]2[O-])n1
inactive: [9] 97 % of control | [10] 116 % of control

CCC[CH2][Ge]([CH2]CCC)[CH2]CCC.CCC[CH2][Ge]([CH3])[CH2]CCC
inactive: [9] 93 % of control | [10] 89 % of control | dose: 400.0 mg/kg/injection, schedule: Q04DX002 (ip), vehicle: saline with Tween-80 93 % of control

CC1(C)CC(=O)C(c2ccc([N+](=O)[O-])cc2)=C(O)c2ccccc21
inactive: [1] 91 % of control | [2] 94 % of control | dose: 200.0 mg/kg/injection, schedule: Q01DX009 (ip), vehicle: saline with Tween-80 91 % of control

S=C(Nc1ccccc1)Nc1ccc(NC(=S)Nc2ccccc2)cc1
inactive: dose: 100.0 mg/kg/injection, schedule: Q01DX001 (ip), vehicle: saline with Tween-80 96 % of control | dose: 200.0 mg/kg/injection, schedule: Q01DX001 (ip), vehicle: saline with Tween-80 92 % of control

C[C@]12CCC(=O)C=C1CC[C@H]1[C@@H]3CCC(=O)[C@@]3(C)CC(=O)[C@@]12S
inactive: dose: 100.0 mg/kg/injection, schedule: Q01DX001 (ip), vehicle: steriod suspending solution 87 % of control | dose: 100.0 mg/kg/injection, schedule: Q04DX003 (ip), vehicle: steriod suspending solution 93 % of control | dose: 200.0 mg/kg/injection, schedule: Q01DX001 (ip), vehicle: steriod suspending solution 93 % of control | dose: 200.0 mg/kg/injection, schedule: Q04DX003 (ip), vehicle: steriod suspending solution 108 % of control | dose: 400.0 mg/kg/injection, schedule: Q01DX001 (ip), vehicle: steriod suspending solution 97 % of control | dose: 400.0 mg/kg/injection, schedule: Q04DX003 (ip), vehicle: steriod suspending solution 95 % of control

CN(C)CCN1C(=O)CC(c2ccccc2)Sc2ccccc21 (stereo not drawn)
inactive: dose: 3.12 mg/kg/injection, schedule: Q01DX009 (ip), vehicle: saline 98 % of control | dose: 6.25 mg/kg/injection, schedule: Q01DX009 (ip), vehicle: saline 118 % of control | dose: 12.5 mg/kg/injection, schedule: Q01DX009 (ip), vehicle: saline 101 % of control | dose: 25.0 mg/kg/injection, schedule: Q01DX009 (ip), vehicle: saline 107 % of control | dose: 25.0 mg/kg/injection, schedule: Q04DX003 (ip), vehicle: saline 102 % of control | dose: 50.0 mg/kg/injection, schedule: Q01DX009 (ip), vehicle: saline 113 % of control | dose: 50.0 mg/kg/injection, schedule: Q04DX003 (ip), vehicle: saline 113 % of control

Cc1cc(C)cc(OCC#CCN(C)c2ccccc2)c1
inactive: [6] 99 % of control | [7] 99 % of control | [8] 96 % of control

CS(=O)(=O)c1nc2ccc([N+](=O)[O-])cc2s1
inactive: dose: 25.0 mg/kg/injection, schedule: Q04DX002 (ip), vehicle: saline 107 % of control | dose: 50.0 mg/kg/injection, schedule: Q04DX002 (ip), vehicle: saline 104 % of control | dose: 100.0 mg/kg/injection, schedule: Q04DX002 (ip), vehicle: saline 100 % of control

O=C1c2ccccc2C(=O)N1C/C=C/Cl
inactive: [11] 104 % of control | [12] 108 % of control | [13] 101 % of control

Cc1ccc2ccc3c4ccccc4ccc3[n+]2c1
inactive: dose: 10.0 mg/kg/injection, schedule: Q01DX001 (ip), vehicle: saline 102 % of control | dose: 20.0 mg/kg/injection, schedule: Q01DX001 (ip), vehicle: saline 98 % of control

O=C(O)c1ccc([N+](=O)[O-])cc1S(=O)(=O)O
inactive: dose: 100.0 mg/kg/injection, schedule: Q01DX001 (ip), vehicle: saline 102 % of control | dose: 200.0 mg/kg/injection, schedule: Q01DX001 (ip), vehicle: saline 102 % of control | dose: 400.0 mg/kg/injection, schedule: Q01DX001 (ip), vehicle: saline 100 % of control

CC(=O)Nc1ccc(OC(C)=O)cc1
inactive: [11] 106 % of control | [12] 106 % of control | [13] 116 % of control

O=C(O)c1ccc(NCc2cccc([N+](=O)[O-])c2)cc1
inactive: dose: 100.0 mg/kg/injection, schedule: Q01DX001 (ip), vehicle: Klucel (hydroxypropylcellulose) (HPC) 100 % of control | dose: 100.0 mg/kg/injection, schedule: Q01DX009 (ip), vehicle: Klucel (hydroxypropylcellulose) (HPC) 96 % of control | [6] 100 % of control and 105 % of control | [3] 99 % of control | dose: 200.0 mg/kg/injection, schedule: Q01DX001 (ip), vehicle: Klucel (hydroxypropylcellulose) (HPC) 104 % of control | dose: 200.0 mg/kg/injection, schedule: Q01DX009 (ip), vehicle: Klucel (hydroxypropylcellulose) (HPC) 106 % of control and 86 % of control | [7] 101 % of control and 102 % of control | [5] 108 % of control | dose: 400.0 mg/kg/injection, schedule: Q01DX001 (ip), vehicle: Klucel (hydroxypropylcellulose) (HPC) 100 % of control | dose: 400.0 mg/kg/injection, schedule: Q01DX009 (ip), vehicle: Klucel (hydroxypropylcellulose) (HPC) 96 % of control and 98 % of control | [8] 99 % of control and 103 % of control | [4] 98 % of control
